Usually IC90 stands for the concentration at which the effect reaches the 90% level.

≈ marks a conversion by molar mass, not a printed value. A value given as a limit tells only on which side of the number the result lay.

The text below walks through data of PubChem BioAssay AID2842 (Southern Research Institute, 2010).

The experiment relates to M. tuberculosis H37Rv growth inhibition. Briefly: Mycobacterium tuberculosis H37Rv growth inhibition, putative kinase inhibitor library, confirmatory dose response (AID 2842).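 Further: bacteria incubated one week before Alamar blue readout.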

On to `Cc1cccc(C(=O)Nc2nnc(-c3cc(C)ccc3C)o2)c1`, for which the IC90 is 3.39 µg/mL (≈ 11 µM).
To `CCC(=O)Nc1nnc(-c2cccs2)o1` belongs 17.1 µg/mL (≈ 76.8 µM); to `Cc1ccc(NC(=O)c2oc3ccccc3c2NC(=O)CCl)cc1C`, 10.2 µg/mL (≈ 28.5 µM).
Regarding `Cc1cccc(N2CCN(C(=O)CCCCCn3c(=O)[nH]c4ccsc4c3=O)CC2)c1C`, the IC90 was 20.9 µg/mL (≈ 46 µM).
In the case of `CCOC(=O)c1cc(NC(=O)Nc2ccc(Cl)c(Cl)c2)c(C)nc1C`, the IC90 was 12.4 µg/mL (≈ 32.5 µM).
Turning to `CCOC(=O)c1c(NC(=O)CCl)sc2c1CCCC2`, the IC90 was 29.8 µg/mL (≈ 98.8 µM).
For `COc1cccc2sc(N(CCCn3ccnc3)C(=O)c3cccs3)nc12`, the IC90 was 5.7 µg/mL (≈ 14.3 µM).
As to `O=C(NCCSc1c[nH]c2ccccc12)Nc1c[nH]c2ccccc12`, the IC90 was 10.2 µg/mL (≈ 29.1 µM).
For `O=C(Nc1nnc(-c2cc(Cl)ccc2Cl)o1)c1ccc(Br)s1`, the IC90 was 2.65 µg/mL (≈ 6.32 µM).
Consider `COc1ccc(-c2nc(N3CCCCC3)nc3n[nH]c(N)c23)cc1`, for which the IC90 was 12.9 µg/mL (≈ 39.8 µM).
For the compound `Cc1ccc(-c2nnc(NC(=O)c3ccc(S(=O)(=O)N(C)C4CCCCC4)cc3)o2)c(C)c1`, the IC90 was 39.2 µg/mL (≈ 83.6 µM).
For the compound `C(=N\n1cnnc1)/c1ccc(-n2nc(-c3ccccc3)cc2-c2ccccc2)cc1`, the IC90 was 15.1 µg/mL (≈ 38.7 µM).
As to `CCOC(=O)N1CCc2c(sc(NC(=O)c3nc4ccccc4s3)c2C(N)=O)C1`, the IC90 is 3.48 µg/mL (≈ 8.08 µM).
Take `COc1ccc(NC(=O)CCCN2C(=O)/C(=C\c3ccco3)SC2=S)cc1`: the IC90 was 3.3 µg/mL (≈ 8.2 µM).
As to `O=C(Nc1ccc(F)cc1)Nc1nc(C(=O)N2CCN(c3ccc(F)cc3)CC2)cs1`, the IC90 was 7.09 µg/mL (≈ 16 µM).
Regarding `O=C1N/C(=N\N=C\c2ccccc2O)SC1Cc1ccc(Br)cc1` (stereo not given), the IC90 was 1.14 µg/mL (≈ 2.82 µM).
Regarding `Cc1ccc(-c2nnc(NC(=O)C3CCCCC3)o2)c(C)c1`, the IC90 is 8.75 µg/mL (≈ 29.2 µM).
With `COc1cc(C(=O)Nc2nnc(-c3ccc(C)cc3C)o2)cc(OC)c1OC`, the IC90 was 2.53 µg/mL (≈ 6.6 µM).
In the case of `CSc1cccc2sc(Nc3cccc(C)c3)nc12`, the IC90 was 12.2 µg/mL (≈ 42.7 µM).
For `O=C(Nc1nnc(-c2cc(Cl)ccc2Cl)o1)c1ccc2c(c1)CCCC2`, the IC90 was 25.8 µg/mL (≈ 66.5 µM).
`Cc1cc(Cl)cc2sc(N(CCCn3ccnc3)C(=O)c3cccs3)nc12`: the IC90 is 1.05 µg/mL (≈ 2.52 µM).
For `COc1ccccc1-c1nnc(NC(=O)CCc2ccccc2)o1`, the IC90 was 6.99 µg/mL (≈ 21.6 µM).
As for `O=C(Nc1nnc(-c2ccc3c(c2)CCCC3)o1)C1CCCCC1`, the IC90 is 40.2 µg/mL (≈ 124 µM).
`CCOc1ccc(-c2nnc3c4cc5c(cc4n(Cc4cccc(OC)c4)cc2-3)OCCO5)cc1`: the IC90 was 3.52 µg/mL (≈ 7.53 µM).
Turning to `COc1ccc(-c2nsc(SCC(=O)Nc3ccc(C(C)=O)cc3)n2)cc1`, the IC90 is 25.9 µg/mL (≈ 64.9 µM).
For `O=C(CCOc1ccccc1)Nc1nnc(-c2cc(Cl)ccc2Cl)o1`, the IC90 is 1.79 µg/mL (≈ 4.73 µM).
Under `COc1ccc2nc(N(CCCn3ccnc3)C(=O)Cc3ccc(F)cc3)sc2c1` stands 5.64 µg/mL (≈ 13.3 µM); under `O=Nc1c(-c2ccccc2)cc2ccccn12`, 3.32 µg/mL (≈ 14.9 µM).
As to `COc1ccc(Nc2c3c4c(cccc4[nH]c2=O)C(=O)c2ccccc2-3)cc1`, the IC90 was 12.4 µg/mL (≈ 33.7 µM).
`CSc1ccc2nc(Nc3nc4ccc(NC(C)=O)cc4s3)sc2c1`: the concentration for an effect of 90% (IC90) is below 0.2 µg/mL.
`O=C(CCc1ccccc1)Nc1nnc(-c2cc(Cl)ccc2Cl)o1`: the IC90 is 26.6 µg/mL (≈ 73.4 µM).
For the compound `O=C(Nc1nnc(-c2ccc3c(c2)CCCC3)o1)c1ccccc1F`, the IC90 was 0.93 µg/mL (≈ 2.76 µM).
Turning to `Cc1ccc(Cn2cc3c(-c4ccc(C)c(C)c4)nnc-3c3cc4c(cc32)OCCO4)cc1`, the IC90 is 11.5 µg/mL (≈ 26.5 µM).
For the compound `O=C(Nc1nnc(-c2ccc(Cl)cc2)o1)c1ccccc1F`, the IC90 was 0.72 µg/mL (≈ 2.27 µM).
To `O=C(Nc1nnc(-c2ccc(F)cc2)o1)c1cccc(C(F)(F)F)c1` belongs 11.7 µg/mL (≈ 33.4 µM); to `Cc1nc2ccccc2c(=O)n1-c1cccc(NC(=O)c2cc([N+](=O)[O-])cc([N+](=O)[O-])c2)c1`, 27.8 µg/mL (≈ 62.5 µM); to `COc1cccc(Nc2nc3ccc(OC)cc3s2)c1`, 23.3 µg/mL (≈ 81.2 µM).
To `COc1cccc(Cn2cc3c(-c4ccc(Cl)cc4)nnc-3c3cc(OC)c(OC)cc32)c1` belongs 15.2 µg/mL (≈ 33.1 µM).
As to `COC(=O)c1c(NC(=O)c2ccccc2I)sc2c1CC(C)(C)NC2(C)C`, the IC90 is 13.2 µg/mL (≈ 26.6 µM).
In the case of `COc1cccc(C(=O)Nc2nc3c(s2)CC(C)CC3)c1` (stereo not given), the IC90 is 14.1 µg/mL (≈ 46.7 µM).
Consider `Cc1ccc(C(=O)c2cn(Cc3ccc(F)cc3)c3ccc(F)cc3c2=O)cc1`, for which the 90% effect concentration (IC90) is 12.5 µg/mL (≈ 32.2 µM).
For the compound `COc1ccc(CNc2nccn(-c3cc(C)c(Cl)cc3OC)c2=O)cc1`, the IC90 was 18.1 µg/mL (≈ 46.8 µM).
To `Cc1ccc(C)c(-c2nnc(NC(=O)C(C)C)o2)c1` belongs 6.62 µg/mL (≈ 25.5 µM); to `Cc1cccc2sc(NNC(=O)c3ccc(N(C)C)cc3)nc12`, 28.6 µg/mL (≈ 87.6 µM).
On to `COc1ccccc1-c1nc(C(N)=O)c2[nH]c(=O)n(-c3ccc(C(C)(C)C)cc3)c2n1`, for which the IC90 is 9.91 µg/mL (≈ 23.7 µM).
Under `Cc1ccc(-c2nnc(NC(=O)c3ccc(F)cc3)o2)c(C)c1` stands 26.3 µg/mL (≈ 84.5 µM).
In the case of `COC(=O)CSCC(=O)Nc1nnc(-c2ccccc2C)s1`, the IC90 was 13.7 µg/mL (≈ 40.7 µM).
On to `COc1ccc(-c2nnc(Nc3nc4c(OC)cccc4s3)o2)cc1`, for which the IC90 was 23.6 µg/mL (≈ 66.5 µM).
On to `Cc1ccc2sc(NNC(=O)c3nc4ccccc4s3)nc2c1C`, for which the IC90 was 3.31 µg/mL (≈ 9.34 µM).
For the compound `COc1cc2c(=O)c(C(=O)c3ccc(F)cc3)cn(Cc3ccc(C)cc3)c2cc1OC`, the IC90 is 7.24 µg/mL (≈ 16.8 µM).
